Test results reported in patent US12577247B2 (BUGWORKS RESEARCH, INC., priority 2021, dated 2026).

Columns and labels:
Assay type in all cases: cell-based
A2B receptor = molecular target: T1, A2B receptor (Homo sapiens, UniProt P29275); experiment: A2bR antagonism IC50, cAMP TR-FRET (Lance Ultra) in HEK-293 cells, NECA as agonist; design: host or cells: HEK-293; details: HEK-293 cells expressing A2B receptor; agonist NECA 30 nM (EC90); inhibition of cAMP
T1 sequence (P29275 1-332): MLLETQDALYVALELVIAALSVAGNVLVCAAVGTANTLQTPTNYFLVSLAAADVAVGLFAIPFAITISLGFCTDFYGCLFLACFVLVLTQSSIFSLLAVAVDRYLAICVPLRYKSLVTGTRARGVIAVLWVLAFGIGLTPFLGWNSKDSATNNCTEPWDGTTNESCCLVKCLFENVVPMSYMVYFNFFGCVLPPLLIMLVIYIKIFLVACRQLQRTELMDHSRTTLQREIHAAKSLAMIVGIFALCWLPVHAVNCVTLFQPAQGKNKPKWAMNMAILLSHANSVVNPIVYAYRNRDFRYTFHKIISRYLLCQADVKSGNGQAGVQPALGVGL

A2A receptor [1] = molecular target: T2, A2A receptor (Homo sapiens, UniProt P29274); experiment: A2aR antagonism IC50, cAMP TR-FRET in HEK-293 cells, high concentration of adenosine (30 μM); details: HEK-293 cells expressing A2A receptor; agonist adenosine 30 μM; 2% HSA; inhibition of cAMP; read-out: A2AR IC50 (nM) (@30 μM Adenosine);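 note: compounds added 10 min before adenosine, then 30 min stimulation at room temperature in buffer with 100 µM rolipram and 30 µM EHNA, signal read 1 h after detection reagents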
T2 construct: host or cells: HEK-293
T2 sequence (P29274 whole entry): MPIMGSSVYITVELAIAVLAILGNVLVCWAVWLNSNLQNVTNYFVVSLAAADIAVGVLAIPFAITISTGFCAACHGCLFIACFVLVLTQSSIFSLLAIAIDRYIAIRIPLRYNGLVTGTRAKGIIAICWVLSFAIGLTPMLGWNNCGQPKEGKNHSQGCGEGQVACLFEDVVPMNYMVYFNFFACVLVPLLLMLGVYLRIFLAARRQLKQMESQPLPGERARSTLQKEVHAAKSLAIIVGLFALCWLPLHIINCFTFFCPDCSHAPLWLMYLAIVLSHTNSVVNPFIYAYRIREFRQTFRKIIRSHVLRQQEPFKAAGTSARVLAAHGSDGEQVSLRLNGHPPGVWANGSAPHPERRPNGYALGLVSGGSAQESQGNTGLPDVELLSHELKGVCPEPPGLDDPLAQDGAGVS

A2A receptor [2] = molecular target: T2, A2A receptor; experiment: A2aR antagonism IC50, cAMP TR-FRET (Lance Ultra) in HEK-293 cells, NECA as agonist; details: A2AR IC50 (nM) (@5 nM NECA), HEK-293 cells expressing A2A receptor; agonist NECA 5 nM (EC90); inhibition of cAMP;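 note: compounds tested from 10 µM down to 0.08 nM in buffer with Rolipram at room temperature, TR-FRET cAMP signal read 1 h after adding Eu-cAMP tracer and ULight anti-cAMP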

Row | IC50 (A2B receptor) [nM] | IC50 (A2A receptor [1]) [nM] | IC50 (A2A receptor [2]) [nM] | SMILES
1 | 6 | 160 | 0.4 | Cc1nn2c(N)c(C#N)c(NCCc3cccc(C4(CO)CC4)n3)nc2c1Cl [Example 34, 7-amino-3-chloro-5-((2-(6-(1-(hydroxymethyl)cyclopropyl)pyridin-2-yl)ethyl)amino)-2-methylpyrazolo[1,5-a]pyrimidine-6-carbonitrile]
2 | 1680 |  | 46 | Cc1cccc(CN(C)c2nc3c(C)c(C)nn3c(N)c2C#N)n1 [Example 8, 7-amino-2,3-dimethyl-5-{methyl[(6-methylpyridin-2-yl)methyl]amino}pyrazolo [1,5-a] pyrimidine-6-carbonitrile]
3 | 21 |  | 5 | CCc1c(C)nn2c(N)c(C#N)c(NCCc3nc(C4(CO)CC4)cs3)nc12 [Example 66]
4 | 17 |  | 31 | Cc1cccc(CCNc2nc3c(C(C)C)c(C)nn3c(N)c2C#N)n1 [Example 28, 7-amino-3-(isopropyl)-2-methyl-5-((2-(6-methylpyridin-2-yl)ethyl)amino) pyrazolo[1,5-a]pyrimidine-6-carbonitrile]
5 | 1370 |  | 25 | CCc1c(C)nn2c(N)c(C#N)c(N[C@@H](C)c3ccccn3)nc12 [Example 4, (S)-7-Amino-3-ethyl-2-methyl-5-((1-(pyridin-2-yl)ethyl)amino) pyrazolo[1,5-a] pyrimidine-6-carbonitrile]
6 | 76 |  | 0.88 | CCc1nn2c(N)c(C#N)c(NCCc3cccc(C)n3)nc2c1C [Example 42, 7-amino-2-ethyl-3-methyl-5-((2-(6-methylpyridin-2-yl)ethyl)amino) pyrazolo[1,5-a]pyrimidine-6-carbonitrile]
7 | > 3000 |  | 1010 | CCc1c(C)nn2c(N)c(C#N)c(N[C@H](C)c3ccccn3)nc12 [Example 3, (R)-7-Amino-3-ethyl-2-methyl-5-((1-(pyridin-2-yl)ethyl)amino) pyrazolo[1,5-a] pyrimidine-6-carbonitrile]
8 | > 3000 |  | 6.6 | Cc1cccc(CNc2nc3c(C)c(C)nn3c(N)c2C#N)n1 [Example 6, 7-amino-2,3-dimethyl-5-{[(6-methylpyridin-2-yl)methyl]amino}pyrazolo[1,5-a] pyrimidine-6-carbonitrile]
9 | 4.4 | 178 | 0.1 | Cc1nn2c(N)c(C#N)c(NCCc3cccc(C4CC4CO)n3)nc2c1Cl (centres unmarked) [Example 38, 7-amino-3-chloro-5-((2-(6-(2-(hydroxymethyl)cyclopropyl)pyridin-2-yl)ethyl)amino)-2-methylpyrazolo[1,5-a]pyrimidine-6-carbonitrile]
10 | 27 | 227 | < 1 | Cc1nn2c(N)c(C#N)c(NCCc3cccc(C(C)(C)CO)n3)nc2c1Cl [Example 65, 7-amino-3-chloro-5-((2-(6-(1-hydroxy-2-methylpropan-2-yl)pyridin-2-yl)ethyl)amino)-2-methylpyrazolo[1,5-a]pyrimidine-6-carbonitrile]
11 | 5 |  | 0.74 | CCc1c(C)nn2c(N)c(C#N)c(NCCc3ccn(CCO)n3)nc12 [Example 54, 7-amino-3-ethyl-5-((2-(1-(2-hydroxyethyl)-1H-pyrazol-3-yl)ethyl)amino)-2-methylpyrazolo[1,5-a]pyrimidine-6-carbonitrile]
12 | 123 |  | 2.3 | CCc1nn2c(N)c(C#N)c(NCCc3cccc(C(C)(C)O)n3)nc2c1C [Example 43, 7-amino-2-ethyl-5-((2-(6-(2-hydroxypropan-2-yl)pyridin-2-yl)ethyl)amino)-3-methylpyrazolo[1,5-a]pyrimidine-6-carbonitrile]
13 | 43 |  | 6.8 | Cc1nn2c(N)c(C#N)c(NCCc3ccc(F)cn3)nc2c1C [Example 11, 7-amino-5-((2-(5-fluoropyridin-2-yl)ethyl)amino)-2,3-dimethylpyrazolo[1,5-a]pyrimidine-6-carbonitrile]
14 | 0.87 |  | 0.15 | CCc1c(C)nn2c(N)c(C#N)c(N[C@@H](C)c3cccc(C)n3)nc12 [Example 5, (S)-7-Amino-3-ethyl-2-methyl-5-((1-(6-methylpyridin-2-yl)ethyl)amino) pyrazolo [1,5-a] pyrimidine-6-carbonitrile]
15 | 130 |  | 11 | CCc1c(C)nn2c(N)c(C#N)c(NC(C)Cc3ccccn3)nc12 (single isomer, unassigned) [Example 23, 7-Amino-3-ethyl-2-methyl-5-((1-(pyridin-2-yl)propan-2-yl)amino) pyrazolo[1,5-a]pyrimidine-6-carbonitrile]
16 | 22 | 250 | 0.8 | Cc1nn2c(N)c(C#N)c(NCCc3ccn(C(C)(C)CO)n3)nc2c1Cl [Example 36, 7-amino-3-chloro-5-((2-(1-(1-hydroxy-2-methylpropan-2-yl)-1H-pyrazol-3-yl)ethyl)amino)-2-methylpyrazolo[1,5-a]pyrimidine-6-carbonitrile]
17 | 0.83 |  | 2.9 | Cc1cccc(CCNc2nc3c(CC4CC4)c(C)nn3c(N)c2C#N)n1 [Example 26, 7-amino-3-(cyclopropylmethyl)-2-methyl-5-((2-(6-methylpyridin-2-yl)ethyl)amino) pyrazolo[1,5-a]pyrimidine-6-carbonitrile]
18 | 547 |  | 2 | Cc1cccc([C@H](C)Nc2nc3c(C)c(C)nn3c(N)c2C#N)n1 [Example 2, 7-amino-2,3-dimethyl-5-{[(1S)-1-(6-methylpyridin-2-yl)ethyl]amino}pyrazolo [1,5-a]pyrimidine-6-carbonitrile]
19 | 51 |  | 0.73 | Cc1nn2c(N)c(C#N)c(NCCc3ccn(C(C)(C)CO)n3)nc2c1C [Example 31, 7-amino-5-({2-[1-(1-hydroxy-2-methylpropan-2-yl)-1H-pyrazol-3-yl]ethyl}amino)-2,3-dimethylpyrazolo[1,5-a]pyrimidine-6-carbonitrile]
20 | 11 |  | 3.3 | CCc1c(C(F)F)nn2c(N)c(C#N)c(NCCc3cccc(CO)n3)nc12 [Example 56, 7-amino-2-(difluoromethyl)-3-ethyl-5-((2-(6-(hydroxymethyl)pyridine-2-yl)ethyl)amino) pyrazolo[1,5-a] pyrimidine-6-carbonitrile]
21 | 41 |  | 2.3 | Cc1ccc(CCNc2nc3c(C)c(C)nn3c(N)c2C#N)nc1 [Example 10, 7-Amino-2,3-dimethyl-5-((2-(5-methylpyridin-2-yl)ethyl)amino) pyrazolo[1,5-a] pyrimidine-6-carbonitrile]
22 | 13 |  | 3.9 | CCc1c(C)nn2c(N)c(C#N)c(NCCc3ccc(F)cn3)nc12 [Example 21, 7-Amino-3-ethyl-5-((2-(5-fluoropyridin-2-yl)ethyl)amino)-2-methylpyrazolo[1,5-a]pyrimidine-6-carbonitrile]
23 | 9.5 |  | 5.5 | CCc1c(C)nn2c(N)c(C#N)c(NCCc3ccc(C)cn3)nc12 [Example 18, 7-Amino-3-ethyl-2-methyl-5-((2-(5-methylpyridin-2-yl)ethyl)amino) pyrazolo[1,5-a]pyrimidine-6-carbonitrile]
24 | 29.3 |  | 0.54 | CCc1c(C)nn2c(N)c(C#N)c(NCCc3cccc(C(C)(C)CO)n3)nc12 [Example 52, 7-amino-3-ethyl-5-((2-(6-(1-hydroxy-2-methylpropan-2-yl)pyridin-2-yl)ethyl)amino)-2-methylpyrazolo[1,5-a] pyrimidine-6-carbonitrile]
25 | > 3000 |  | 0.59 | CCc1cccc(CNc2nc3c(C)c(C)nn3c(N)c2C#N)n1 [Example 7, 7-amino-5-{[(6-ethylpyridin-2-yl)methyl]amino}-2,3-dimethylpyrazolo[1,5-a] pyrimidine-6-carbonitrile]
26 | 2.2 |  | 2.5 | CCc1c(C)nn2c(N)c(C#N)c(NC(C)Cc3ccccn3)nc12 (single isomer, unassigned) [Example 22, 7-Amino-3-ethyl-2-methyl-5-((1-(pyridin-2-yl)propan-2-yl)amino) pyrazolo[1,5-a]pyrimidine-6-carbonitrile]
27 | 14 |  | 0.2 | CCc1c(C)nn2c(N)c(C#N)c(NCCc3cccc(C(C)(C)O)n3)nc12 [Example 25, 7-amino-3-ethyl-5-({2-[6-(2-hydroxypropan-2-yl)pyridin-2-yl]ethyl}amino)-2-methylpyrazolo[1,5-a]pyrimidine-6-carbonitrile]
28 | 100 |  | 13 | Cc1nn2c(N)c(C#N)c(NCc3ccn(C(C)(C)CO)n3)nc2c1C [Example 57, 7-amino-5-(((1-(1-hydroxy-2-methylpropan-2-yl)-1H-pyrazol-3-yl)methyl)amino)-2,3-dimethylpyrazolo[1,5-a]pyrimidine-6-carbonitrile]
29 | 2.3 |  | 1.3 | Cc1nn2c(N)c(C#N)c(NCCc3cccc(CO)n3)nc2c1C [Example 44, 7-amino-5-((2-(6-(hydroxymethyl)pyridin-2-yl)ethyl)amino)-2,3-dimethylpyrazolo[1,5-a]pyrimidine-6-carbonitrile]
